From the supplement of paper PMC4862054

Tests used:
Settings in all cases: incubation time: 72 h
CAL-85-1 [1] = assay: normalised viability (% of control), CellTiter-Blue; higher = more viable cells (about 100 = DMSO control)
Procedure, shortened: (§1)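 Plates were quality-checked by Z'-factor and normalised to vehicle (100) and a positive kill control (0). The underlying assay incubated breast cancer cell lines for 72 h on 384-well plates with compound, then added 2.5 µl CellTiter-Blue for 2 h at 37 °C and read at 560/590 nm. The value is normalised viability at a single listed concentration of the series.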

BT-549 [2] = assay: as above
Procedure, shortened: as §1

MDA-MB-468 [3] = assay: as above
Procedure, shortened: as §1

CAL-51 [4] = assay: as above
Procedure, shortened: as §1

CAL-148 [5] = assay: as above
Procedure, shortened: as §1

HCC1143 = assay: as above
Procedure, shortened: as §1

HCC1599 [6] = assay: as above
Procedure, shortened: as §1

MFM-223 = assay: as above
Procedure, shortened: as §1

Hs578T [7] = assay: as above
Procedure, shortened: as §1

MDA-MB-453 [8] = assay: as above
Procedure, shortened: as §1

BT-474 [9] = assay: as above
Procedure, shortened: as §1

CAL-85-1 [10] = assay: drug sensitivity score (DSS), CellTiter-Blue viability (DSS (AUC-based score)); higher = stronger viability inhibition; extreme values may be limits of the assay
Procedure, shortened: (§2)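 Drug sensitivity scores correspond to the area under the fitted dose-response curve. Breast cancer cell lines were incubated 72 h with compound at 5 or 9 concentrations in 384-well plates. Viability, read as CellTiter-Blue fluorescence at 560/590 nm, was normalised per plate to 0.1 % DMSO and a positive kill control.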

BT-549 [11] = assay: as above
Procedure, shortened: as §2

MDA-MB-468 [12] = assay: as above
Procedure, shortened: as §2

CAL-51 [13] = assay: as above
Procedure, shortened: as §2

SK-BR-3 = assay: as above
Procedure, shortened: as §2

CAL-148 [14] = assay: as above
Procedure, shortened: as §2

HCC1599 [15] = assay: as above
Procedure, shortened: as §2

Hs578T [16] = assay: as above
Procedure, shortened: as §2

MDA-MB-436 = assay: as above
Procedure, shortened: as §2

MDA-MB-453 [17] = assay: as above
Procedure, shortened: as §2

BT-474 [18] = assay: as above
Procedure, shortened: as §2

MDA-MB-231 = assay: as above
Procedure, shortened: as §2

HDQ-P1 = assay: as above
Procedure, shortened: as §2

C[C@]12C=CC(=O)C=C1CC[C@@H]1[C@@H]2C(=O)C[C@@]2(C)[C@H]1CC[C@]2(O)C(=O)CO [Prednisone]
normalised viability [%]
Settings | 3 nM | 10 nM | 30 nM | 100 nM | 1000 nM | 10000 nM
BT-474 [9] | – | 133 | – | – | 109 | 111
BT-549 [2] | – | 96.7 | – | – | 107 | 108
CAL-51 [4] | 104 | – | 98.3 | 103 | – | –
CAL-85-1 [1] | 95.8 | – | 102 | 90.9 | – | –
CAL-148 [5] | 94.8 | – | 97.4 | 104 | – | –
HCC1143 | – | 91 | – | – | 89.1 | 86.8
HCC1599 [6] | – | 102 | – | – | 103 | 94
Hs578T [7] | – | 121 | – | – | 108 | 105
MDA-MB-453 [8] | 106 | – | 115 | 113 | – | –
MDA-MB-468 [3] | – | 98.6 | – | – | 104 | 98
MFM-223 | – | 91.7 | – | – | 89.7 | 94.8

Settings | drug sensitivity score
BT-474 [18] | 0
BT-549 [11] | 0
CAL-51 [13] | 0
CAL-85-1 [10] | 0
CAL-148 [14] | 0
HCC1599 [15] | 0
HDQ-P1 | 0
Hs578T [16] | 0
MDA-MB-231 | 0
MDA-MB-436 | 0
MDA-MB-453 [17] | 0
MDA-MB-468 [12] | 0
SK-BR-3 | 0

CO[C@H]1C[C@@H]2CC[C@@H](C)[C@@](O)(O2)C(=O)C(=O)N2CCCC[C@H]2C(=O)O[C@H]([C@H](C)C[C@@H]2CC[C@@H](O)[C@H](OC)C2)CC(=O)[C@H](C)/C=C(\C)[C@@H](O)[C@@H](OC)C(=O)[C@H](C)C[C@H](C)/C=C/C=C/C=C/1C [Sirolimus]
normalised viability [%]
Settings | 0.3 nM | 1 nM | 3 nM | 10 nM | 100 nM | 1000 nM
BT-474 [9] | – | 74.7 | – | – | 75.1 | 67.5
BT-549 [2] | – | 55.6 | – | – | 57.5 | 45.2
CAL-51 [4] | 80 | – | 45.8 | 34.5 | – | –
CAL-85-1 [1] | 86.1 | – | 58.2 | 66 | – | –
CAL-148 [5] | 96.1 | – | 53.9 | 53.3 | – | –
HCC1143 | – | 90.3 | – | – | 71.6 | 71.4
HCC1599 [6] | – | 88.4 | – | – | 56.7 | 75.3
Hs578T [7] | – | 65.5 | – | – | 53.1 | 51.8
MDA-MB-453 [8] | 86.1 | – | 34.2 | 32.2 | – | –
MDA-MB-468 [3] | – | 70.2 | – | – | 65.3 | 69.5
MFM-223 | – | 56.2 | – | – | 47.5 | 47.1

Settings | drug sensitivity score
BT-474 [18] | 0
BT-549 [11] | 20.8
CAL-51 [13] | 23.8
CAL-85-1 [10] | 17
CAL-148 [14] | 19.8
HCC1599 [15] | 9.43
HDQ-P1 | 13.2
Hs578T [16] | 14.4
MDA-MB-231 | 0
MDA-MB-436 | 0
MDA-MB-453 [17] | 27.8
MDA-MB-468 [12] | 14.2
SK-BR-3 | 15.4

CN1CCN(c2nc(C3=C(c4c[nH]c5ccccc45)C(=O)NC3=O)c3ccccc3n2)CC1 [Sotrastaurin]
normalised viability [%]
Settings | 3 nM | 10 nM | 30 nM | 100 nM | 1000 nM | 10000 nM
BT-474 [9] | – | 112 | – | – | 109 | 94.6
BT-549 [2] | – | 82.5 | – | – | 92.8 | 74.2
CAL-51 [4] | 94.4 | – | 91 | 90.9 | – | –
CAL-85-1 [1] | 106 | – | 111 | 130 | – | –
CAL-148 [5] | 115 | – | 113 | 119 | – | –
HCC1143 | – | 135 | – | – | 119 | 120
HCC1599 [6] | – | 121 | – | – | 108 | 101
Hs578T [7] | – | 98.7 | – | – | 98.4 | 87.2
MDA-MB-453 [8] | 102 | – | 105 | 87.7 | – | –
MDA-MB-468 [3] | – | 95.6 | – | – | 93 | 89.8
MFM-223 | – | 103 | – | – | 93.8 | 74

Settings | drug sensitivity score
BT-474 [18] | 0
BT-549 [11] | 0
CAL-51 [13] | 0
CAL-85-1 [10] | 0
CAL-148 [14] | 0
HCC1599 [15] | 0
HDQ-P1 | 0
Hs578T [16] | 0
MDA-MB-231 | 0
MDA-MB-436 | 0
MDA-MB-453 [17] | 0
MDA-MB-468 [12] | 0
SK-BR-3 | 0

CC/C(=C(\c1ccccc1)c1ccc(OCCN(C)C)cc1)c1ccccc1 [Tamoxifen]
normalised viability [%]
Settings | 3 nM | 10 nM | 30 nM | 100 nM | 1000 nM | 10000 nM
BT-474 [9] | – | 111 | – | – | 117 | 77.5
BT-549 [2] | – | 83.3 | – | – | 82.8 | 56.5
CAL-51 [4] | 89.5 | – | 92.2 | 93.4 | – | –
CAL-85-1 [1] | 100 | – | 92 | 116 | – | –
CAL-148 [5] | 111 | – | 105 | 127 | – | –
HCC1143 | – | 113 | – | – | 110 | 120
HCC1599 [6] | – | 102 | – | – | 107 | 90
Hs578T [7] | – | 122 | – | – | 123 | 104
MDA-MB-453 [8] | 98.4 | – | 85.2 | 103 | – | –
MDA-MB-468 [3] | – | 100 | – | – | 106 | 9.44
MFM-223 | – | 89 | – | – | 87.7 | 54.1

Settings | drug sensitivity score
BT-474 [18] | 0
BT-549 [11] | 1.73
CAL-51 [13] | 0
CAL-85-1 [10] | 0
CAL-148 [14] | 0
HCC1599 [15] | 0
HDQ-P1 | 0
Hs578T [16] | 0
MDA-MB-231 | 0
MDA-MB-436 | 2.35
MDA-MB-453 [17] | 2.6
MDA-MB-468 [12] | 3.95
SK-BR-3 | 0
